Like-named read-outs stand apart in the source and are kept apart here.
How the values were obtained:
[1] = system: human lung cancer strain NCI-H441; assay: NCI-H441 cell proliferation inhibitory activity (CellTiter-Glo, 4 days); type: cell-based; details: read-out: NCl-H441 IC50
Procedure, shortened: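 Signal came from […] measured per well once the reagent was added. Beforehand, cells were cultured at 37°C and 5% carbon dioxide on a compound series serially diluted in dimethyl sulfoxide.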

[2] = biological target: GDP-bound NRAS wild-type protein (Homo sapiens, UniProt P01111); assay: Binding to NRAS by surface plasmon resonance (SPR), KD and KD ratio to KRAS
GDP-bound NRAS wild-type protein, sequence (P01111 whole entry): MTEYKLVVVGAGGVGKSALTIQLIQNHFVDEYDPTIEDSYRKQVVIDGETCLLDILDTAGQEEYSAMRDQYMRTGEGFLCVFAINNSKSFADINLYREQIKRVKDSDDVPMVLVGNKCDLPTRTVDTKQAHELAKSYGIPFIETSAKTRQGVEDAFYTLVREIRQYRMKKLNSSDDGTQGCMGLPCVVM
Procedure, shortened: (§1)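 Recombinant RAS proteins bearing a biotinylated Avi tag and loaded with GDP served as the captured ligand, recaptured fresh every cycle. Binding responses were referenced to an uncoated surface and a buffer-only blank cycle. Dissociation constants were obtained by 1:1 model fitting at 30°C.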

[3] = biological target: GDP-bound KRAS wild-type protein (Homo sapiens, UniProt P01116); assay: Binding to KRAS by surface plasmon resonance (SPR), dissociation constant KD
GDP-bound KRAS wild-type protein, sequence (P01116 1-188 isoform P01116-2): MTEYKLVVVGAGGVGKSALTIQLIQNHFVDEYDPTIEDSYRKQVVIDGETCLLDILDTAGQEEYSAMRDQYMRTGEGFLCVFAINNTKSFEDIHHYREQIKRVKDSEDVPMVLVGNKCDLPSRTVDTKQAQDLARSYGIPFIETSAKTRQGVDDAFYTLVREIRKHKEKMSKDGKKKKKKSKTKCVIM
Procedure, shortened: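 Captured GDP-RAS (~100–300 RU) was exposed to increasing compound concentrations, 75 s per step, in running buffer with 10 µM GDP, 10 mM MgCl2 and 4% DMSO at pH 7.4.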

HRAS wild-type protein = HRAS wild-type protein (Homo sapiens, UniProt P01112); assay: Binding to HRAS by surface plasmon resonance (SPR), KD and KD ratio to KRAS
HRAS wild-type protein, sequence (P01112 whole entry): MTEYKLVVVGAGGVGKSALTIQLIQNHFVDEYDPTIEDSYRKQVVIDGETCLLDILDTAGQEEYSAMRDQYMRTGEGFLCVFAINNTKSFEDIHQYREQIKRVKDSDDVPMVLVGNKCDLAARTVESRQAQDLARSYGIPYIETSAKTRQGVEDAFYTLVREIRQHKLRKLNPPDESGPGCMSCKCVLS
Procedure, shortened: as §1

[4] = ratio of KD for GDP-bound NRAS wild-type protein to KD for KRAS
[5] = ratio of KD for HRAS wild-type protein to KD for KRAS
[6] = 50% proliferation inhibitory concentration, four days
[7] = ratio of KD with respect to GDP-bound NRAS wild-type protein to KD with respect to KRAS
[8] = Single Cycle Kinetics, 1:1 binding model
[9] = ratio of KD with respect to HRAS wild-type protein to KD with respect to KRAS

Structure (SMILES)	IC50 ([1]; NCI-H441 cells, 4 days)	NRAS /KRAS [2, 4]	Kd ([3]; Single Cycle Kinetics)	HRAS /KRAS (HRAS wild-type protein; [5])	IC50 [1, 6]	NRAS /KRAS [2, 7]	Kd [3, 8]	HRAS /KRAS (HRAS wild-type protein; [9])	Kd ([3]; 1:1 binding model)
C#CC[C@H]1C(=O)N[C@@H]([C@@H](C)CC)C(=O)N(C2CC2)CC(=O)N(C)[C@H]2C/C=C\CCN(C2=O)[C@@H](Cc2ccc(C)cc2)C(=O)N(C)CC(=O)N[C@@H](CCc2ccc(C(F)(F)F)c(OC)c2)C(=O)N2C[C@H](OCC)C[C@H]2C(=O)OC2(CCC2)C(=O)N(C)[C@@H](C2CCCC2)C(=O)N(C)[C@H](C(=O)N(C)C)CC(=O)N1C [PP3390]	22.8 nM	A (a compound having 10 or more and less than 20 is denoted as A)	0.69 nM	B (a compound having 3 or more and less than 10 is denoted as B)	–	–	–	–	–
CCO[C@@H]1C[C@H]2C(=O)NC3(CCC3)C(=O)N(C)[C@@H](C3CCCC3)C(=O)N(C)[C@H](C(=O)N3CCCC3)CC(=O)N(C)[C@@H](CC(F)F)C(=O)N[C@@H]([C@@H](C)CC)C(=O)N(C)CC(=O)N(C)[C@H]3C/C=C\CCN(C3=O)[C@@H](Cc3ccc(C(F)(F)F)cc3)C(=O)N(C)CC(=O)N[C@@H](CCc3cc(F)c(C(F)(F)F)c(F)c3)C(=O)N2C1 [PP1298]	–	–	–	–	11.4 nM	AA (a compound having 20 or more is denoted as AA)	0.13 nM	A (a compound having 10 or more and less than 20 is denoted as A)	–
CCO[C@@H]1C[C@H]2C(=O)NC3(CCC3)C(=O)N(C)[C@@H](C3CCCC3)C(=O)N(C)[C@H](C(=O)N3CCOCC3)CC(=O)N(C)[C@@H](CC3CC3)C(=O)N[C@@H]([C@@H](C)CC)C(=O)N(C)CC(=O)N(C)[C@H]3C/C=C\CCN(C3=O)[C@@H](Cc3ccc(C)cc3)C(=O)N(C)CC(=O)N[C@@H](CCc3cc(F)c(C(F)(F)F)c(F)c3)C(=O)N2C1 [PP1408]	–	–	–	–	37.6 nM	A (a compound having 10 or more and less than 20 is denoted as A)	0.22 nM	A (a compound having 10 or more and less than 20 is denoted as A)	–
CC[C@H](C)[C@@H]1NC(=O)[C@H](CC)N(C)C(=O)C[C@@H](C(=O)N(C)C)N(C)C(=O)[C@H](C2CCCC2)N(C)C(=O)C2(CCC2)NC(=O)[C@@H]2C[C@@H](OC)CN2C(=O)[C@H](CCc2cc(F)c(C(F)(F)F)c(F)c2)NC(=O)CN(C)C(=O)[C@H](Cc2ccc(C(F)(F)F)cc2)N2CC/C=C\C[C@@H](C2=O)N(C)C(=O)CN(C)C1=O [PP1130]	–	–	–	–	19.6 nM	A (a compound having 10 or more and less than 20 is denoted as A)	0.035 nM	B (a compound having 3 or more and less than 10 is denoted as B)	–
CCC[C@H]1C(=O)N[C@@H](CC(C)C)C(=O)N(C2CC2)CC(=O)N(C)[C@H]2C/C=C\CCN(C2=O)[C@@H](Cc2ccc(C)cc2)C(=O)N(C)CC(=O)N[C@@H](CCc2cc(F)c(C(F)(F)F)c(F)c2)C(=O)N2C[C@H](OCC)C[C@H]2C(=O)NC2(CC(C)(C)C2)C(=O)N(C)[C@@H](C2CCCC2)C(=O)N(C)[C@H](C(=O)N(C)C)CC(=O)N1C [PP2508]	124 nM	A (a compound having 10 or more and less than 20 is denoted as A)	–	B (a compound having 3 or more and less than 10 is denoted as B)	–	–	–	–	3.4 nM
CCOC[C@H]1C(=O)N[C@@H]([C@@H](C)CC)C(=O)N(C)CC(=O)N(C)[C@H]2C/C=C\CCN(C2=O)[C@@H](Cc2ccc(C)cc2)C(=O)N(C)CC(=O)N[C@@H](CCc2ccc(C(F)(F)F)c(Cl)c2)C(=O)N2C[C@H](OCC)C[C@H]2C(=O)NC2(CC(C)(C)C2)C(=O)N(C)[C@@H](C2CCCC2)C(=O)N(C)[C@H](C(=O)N(C)CC)CC(=O)N1C [PP2401]	5.3 nM	A (a compound having 10 or more and less than 20 is denoted as A)	–	A (a compound having 10 or more and less than 20 is denoted as A)	–	–	–	–	0.12 nM
CCC[C@H]1C(=O)N[C@@H](C2CCCC2)C(=O)N(C)CC(=O)N(C)[C@H]2C/C=C\CCN(C2=O)[C@@H](Cc2ccc(C)cc2)C(=O)N(C)CC(=O)N[C@@H](CCc2cc(F)c(C(F)(F)F)c(F)c2)C(=O)N2CC3(CC3)C[C@H]2C(=O)N(C)C2(CCC2)C(=O)N(C)[C@@H](C2CCCC2)C(=O)N(C)[C@H](C(=O)N(C)C)CC(=O)N1C [PP3306]	9.3 nM	A (a compound having 10 or more and less than 20 is denoted as A)	0.052 nM	B (a compound having 3 or more and less than 10 is denoted as B)	–	–	–	–	–
